Results taken from patent publication US20240299359A1, “PHARMACEUTICAL COMPOSITION FOR ANIMALS CONTAINING 5-HYDROXY-METHYLIMIDAZOLIDINE-2,4-DIONE COMPOUND AS ACTIVE INGREDIENT” (KYONGBO PHARM. CO., LTD., priority 2021, published 2024).
Read-outs that look alike come from different tables or passages of the source.

Columns and labels:
[1] = Pharmacokinetic analysis in beagles after oral administration; assay type: in vivo, beagle; conditions: for Cmax / AUC(0-inf) / AUC(0-t) / half-life / Tmax: beagle, dog, plasma, mean; for Cmax: po, read-out: Cmax (average highest plasma concentration); for Tmax: read-out: tmax (time of highest plasma concentration)
Experimental: For this purpose, 5-hydroxy-1-methylimidazolidine-2,4-dione was weighed, based on the fasting weight measured on the day of administration, using an electronic scale in accordance with the oral doses of 10, 50, 100, and 200 mg/kg for each experimental group, and was added to a 500 ml glass container, DW (distilled water) was added as an excipient, and the drug was dissolved therein through vortexing and stirring. Then, the beagles used in the subsequent experiments were acclimatized and environmentally adapted for about a week before the test, and then the compound was orally administered to each beagle at the doses listed in the table below. In addition, the beagles used in this experiment were bred and kept at the Endik Institute.
The compound was administered orally, blood was collected in a volume of 3 ml using a syringe from the jugular vein of the experimental beagle at each time (0 (before administration), 0.25, 0.5, 1, 1.5, 2, 4, 8, 12, and 24 hours), the collected blood was centrifuged at 4,000 rpm/10 minutes at 4° C. and dispensed into 500 μl of a set of two separate 1.5 ml tubes, and the remaining plasma was dispensed into another set and immediately stored in a deep freezer at −70° C. until analysis. The concentration of 5-hydroxy-1-methylimidazolidine-2,4-dione in the collected plasma was measured using the following method.
First, a standard sample solution for preparing a calibration curve was prepared. 1.2 mg of standard 5-hydroxy-1-methylimidazolidine-2,4-dione was dissolved in 0.12 ml of DMSO to prepare a stock solution having a final concentration of 10 mg/ml. Then, the stock solution was diluted to a final concentration of 500, 1,000, 2,000, 5,000, 10,000, 30,000, 100,000, 300,000, and 1,000,000 ng/ml with 70% acetonitrile as a solvent. Then, for an internal standard sample solution, 5.0 mg of 4-methylumbelliferone was dissolved in acetonitrile to prepare a final stock solution of 5 mg/ml, which was then diluted with acetonitrile to obtain a final concentration of 200 ng/ml.
To prepare a calibration curve using each solution prepared above, standard 5-hydroxy-1-methylimidazolidine-2,4-dione was dissolved in DMSO to prepare a 10 mg/ml standard stock solution and then the standard stock solution was frozen at −20° C., and the prepared standard stock solution was diluted with 70% acetonitrile to prepare a working solution. The working solution was diluted with blank plasma stored frozen below −20° C. (working standard solution 10%, blank plasma 90%) to prepare standard plasma to adjust the concentration of analyte in plasma to […]. 20 μl of each standard plasma was placed in a 1.5 ml micro-tube and then 180 μl of internal standard solution (200 ng/ml in ACN) was added thereto. After vortexing for 5 minutes, centrifugation was performed at 4° C. and 17,600×g for 5 minutes. 150 μl of the supernatant was transferred to a 300 μl screw vial, 5 μl of the supernatant was injected into the HPLCMS/MS system, and a calibration curve was plotted at the ratio of the peak area of the analyte to the obtained peak area of the internal standard.
Then, the plasma sample collected from the beagle was subjected to the following pretreatment for assay. 180 μl of the internal standard solution was added to 20 μl of the plasma sample to induce protein precipitation. Then, the mixed sample was suspended using a vortex mixer for 5 minutes, centrifuged at 17,600×g for 5 minutes, and 150 μl of the supernatant was transferred to an analysis container. Then, 5 μl of the supernatant was injected into a HPLC/MS/MS system and analysis was performed. The instruments used for analysis were an HPLC system (Agilent 1100 Series with on-line degasser, binary pump, thermostatted well-plate autosampler and column compartment) and an MS/MS system (SCIEX 4000 QTRAP System). […]

beagles = test: 13-week repeated oral toxicity: observation of general symptoms; assay type: in vivo; conditions: repeated oral once a day for 13 weeks
Experimental: Furthermore, the present inventors performed a toxicity test on 5-hydroxy-1-methylimidazolidine-2,4-dione in beagles. Toxicity tests were conducted based on single oral administration and repeated oral administration for 13 weeks. The stability of the compound was analyzed by evaluating the analysis items including clinical symptoms, weight, feed intake, blood test, urine and eye test during the administration period.
General symptoms (such as vomiting, salivation, diarrhea, and abnormal behavior) and death were observed daily during the 13-week test period, starting from the day before administration, and abnormalities were recorded in clinical symptoms.

[2] = oral G3 (100 ng/kg [sic]; text 100 mg/kg)

Molecule `CN1C(=O)NC(=O)C1O` (stereo not drawn) [KBP-001, 5-hydroxy-1-methylimidazolidine-2,4-dione] has a Cmax ([1]; 10 mg/kg, oral 10 mg/kg (G1)) of 15 µg/mL, a Cmax ([1]; 100 mg/kg, oral G3 (100 ng/kg [sic]; text 100 mg/kg)) of 102 µg/mL and a Cmax ([1]; 200 mg/kg, oral 200 mg/kg (G4)) of 233 µg/mL. For the same molecule, the AUC(0-inf) ([1]; oral 10 mg/kg (G1)) was 66.2 µg·h/mL, the AUC(0-t) ([1]; oral 10 mg/kg (G1)) was 65.4 µg·h/mL and the half-life ([1]; oral 10 mg/kg (G1)) was 2.89 h. The Tmax ([1]; oral 10 mg/kg (G1)) was 0.6 h, the AUC(0-inf) ([1]; oral 50 mg/kg (G2)) was 289 µg·h/mL and the AUC(0-t) ([1]; oral 50 mg/kg (G2)) was 288 µg·h/mL. For the same molecule, the half-life ([1]; oral 50 mg/kg (G2)) was 2.8 h, the Tmax ([1]; oral 50 mg/kg (G2)) was 0.35 h and the AUC(0-inf) ([1]; oral 200 mg/kg (G4)) was 1120 µg·h/mL. The AUC(0-t) ([1]; oral 200 mg/kg (G4)) was 1110 µg·h/mL, the half-life ([1]; oral 200 mg/kg (G4)) was 2.9 h and the Tmax ([1]; oral 200 mg/kg (G4)) was 0.45 h. It also gave an AUC(0-inf) [1, 2] of 468 µg·h/mL, an AUC(0-t) [1, 2] of 466 µg·h/mL and a half-life [1, 2] of 2.97 h. The Tmax [1, 2] was 0.8 h, the adverse reactions ([1]; single oral 10, 50, 100, 200 mg/kg, until end of PK test) was “no adverse reactions were observed” and the “general symptoms and deaths” value (beagles) was “no unusual symptoms (vomiting, salivation, diarrhea, behavioral abnormalities, etc.) or deaths occurred”.
